Reference: the supplement of paper PMC10307832

Key:
Assay in all cases: relative viability (nuclei count vs DMSO), 5 days (fraction); higher = more cells survive
[1] = compound: CC[C@H](Nc1ncnc2[nH]cnc12)c1nc2cccc(F)c2c(=O)n1-c1ccccc1 [Idelalisib] + NC(=O)Nc1cc(-c2cccc(F)c2)sc1C(=O)N[C@H]1CCCNC1 [AZD7762] (partner 0.2 µM)
Summary of the method: (§1)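 Five library-drug doses in √10 steps were combined with a fixed anchor-drug dose, or a single drug was given alone, by pin tool to lung cancer cell lines in 1536-well plates the day after seeding. Nuclei were stained and counted after 5 days. Relative viability is the nuclei count in treated wells over that in vehicle wells, taken as the median of duplicate plates.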

[2] = compound: Nc1nc2[nH]cc(CCc3ccc(C(=O)N[C@@H](CCC(=O)O)C(=O)O)cc3)c2c(=O)[nH]1 [Pemetrexed] + CC(=O)Nc1cccc(-n2c(=O)n(C3CC3)c(=O)c3c(Nc4ccc(I)cc4F)n(C)c(=O)c(C)c32)c1 [Trametinib] (partner 0.02 µM)
Summary of the method: as §1

[3] = compound: Nc1nc2[nH]cc(CCc3ccc(C(=O)N[C@@H](CCC(=O)O)C(=O)O)cc3)c2c(=O)[nH]1 [Pemetrexed] + CC(=O)c1c(C)c2cnc(Nc3ccc(N4CCNCC4)cn3)nc2n(C2CCCC2)c1=O [Palbociclib] (partner 0.5 µM)
Summary of the method: as §1

[4] = compound: Nc1nc2[nH]cc(CCc3ccc(C(=O)N[C@@H](CCC(=O)O)C(=O)O)cc3)c2c(=O)[nH]1 [Pemetrexed] + CS(=O)(=O)CCNCc1ccc(-c2ccc3ncnc(Nc4ccc(OCc5cccc(F)c5)c(Cl)c4)c3c2)o1 [Lapatinib] (partner 2 µM)
Summary of the method: as §1

Row | Cell Line | relative viability ([1]; first compound 0.04 µM) | relative viability ([1]; first compound 0.1265 µM) | relative viability ([1]; first compound 0.4 µM) | relative viability ([1]; first compound 1.265 µM) | relative viability ([1]; first compound 4 µM) | relative viability ([2]; first compound 0.002 µM) | relative viability ([2]; first compound 0.006325 µM) | relative viability ([2]; first compound 0.02 µM) | relative viability ([2]; first compound 0.06325 µM) | relative viability ([2]; first compound 0.2 µM) | relative viability ([3]; first compound 0.002 µM) | relative viability ([3]; first compound 0.006325 µM) | relative viability ([3]; first compound 0.02 µM) | relative viability ([3]; first compound 0.06325 µM) | relative viability ([3]; first compound 0.2 µM) | relative viability ([4]; first compound 0.002 µM) | relative viability ([4]; first compound 0.006325 µM) | relative viability ([4]; first compound 0.02 µM) | relative viability ([4]; first compound 0.06325 µM) | relative viability ([4]; first compound 0.2 µM)
1 | 201T | 0.712 | 0.587 | 0.523 | 0.377 | 0.583 | 0.745 | 0.713 | 0.706 | 0.735 | 0.724 | 0.396 | 0.352 | 0.365 | 0.335 | 0.362 | 0.977 | 1.04 | 1.1 | 1.07 | 1
2 | A549 | – | – | – | – | – | – | – | – | – | – | – | – | – | – | – | 0.841 | 0.947 | 1.13 | 0.987 | 0.973
3 | A-427 | 0.773 | 0.748 | 0.66 | 0.442 | 0.624 | 0.785 | 0.794 | 0.794 | 0.696 | 0.733 | 0.505 | 0.529 | 0.572 | 0.509 | 0.483 | 0.974 | 1.06 | 1.09 | 1.14 | 0.819
4 | ABC-1 | 0.904 | 0.738 | 0.783 | 0.729 | 0.864 | – | – | – | – | – | 0.905 | 0.527 | 0.684 | 0.468 | 0.542 | 1.35 | 1.16 | 1.25 | 1.05 | 1.16
5 | BEN | 0.748 | 0.739 | 0.765 | 0.584 | 0.664 | 1.19 | 0.942 | 1.08 | 0.884 | 1.05 | 0.544 | 0.473 | 0.531 | 0.457 | 0.458 | 0.811 | 0.594 | 0.817 | 0.663 | 0.624
6 | CAL-12T | 0.843 | 0.653 | 0.713 | 0.398 | 0.654 | 0.332 | 0.329 | 0.328 | 0.347 | 0.331 | 0.338 | 0.435 | 0.575 | 0.438 | 0.341 | 0.549 | 0.678 | 0.615 | 0.774 | 0.59
7 | COR-L23 | – | – | – | – | – | 0.581 | 0.569 | 0.733 | 0.206 | 0.152 | 0.21 | 0.275 | 0.254 | 0.149 | 0.127 | 0.853 | 0.815 | 1.05 | 0.365 | 0.192
8 | COR-L 105 | – | – | – | – | – | 0.442 | 0.423 | 0.47 | 0.479 | 0.453 | 0.295 | 0.424 | 0.399 | 0.396 | 0.423 | 0.404 | 0.389 | 0.375 | 0.406 | 0.315
9 | Calu-6 | – | – | – | – | – | – | – | – | – | – | – | – | – | – | – | 1.09 | 1.02 | 1.18 | 0.999 | 0.84
10 | ChaGo-K-1 | 0.943 | 0.885 | 0.826 | 0.606 | 0.841 | 0.902 | 0.848 | 0.871 | 0.662 | 0.31 | 0.959 | 0.888 | 0.971 | 0.668 | 0.369 | – | – | – | – | –
11 | EBC-1 | – | – | – | – | – | – | – | – | – | – | – | – | – | – | – | 0.22 | 0.193 | 0.205 | 0.214 | 0.192
